Reference: US9603827B2, “Method for preventing and/or treating hairy wart disease” (Mitsubishi-Kagaku Foods Corporation, priority 2014, dated 2017)

What was measured:
Format in all cases: in vivo
[1] = tested on: dairy cows afflicted with digital dermatitis; assay: Effect of patch on digital dermatitis of dairy cows (Example 1); conditions: patch on affected area, assessed two days later
Excerpt: 3 g of a powdered composition of allyl isothiocyanate (trade name: “Wasaouro Powder”, Mitsubishi-Kagaku Foods Corp.) were placed on a piece of absorbent cotton and pressed against the affected area of dairy cows afflicted with digital dermatitis followed by wrapping with an elastic bandage to administer the allyl isothiocyanate to the affected area in the form of a patch and assessing the effect two days later. In addition, the effect of respectively administering sodium alginate and slaked lime using the same method was also assessed two days later.

[2] = tested on: dairy cows afflicted with hairy hoof wart attack; assay: Effect of patch on hairy hoof wart attack of dairy cows (Example 2); conditions: assessed one week later
Excerpt: 3 g of a powdered composition of allyl isothiocyanate (trade name: “Wasaouro Powder”, Mitsubishi-Kagaku Foods Corp.) were placed on a piece of absorbent cotton and pressed against the affected area of dairy cows (5) afflicted with hairy hoof wart attack followed by wrapping with an elastic bandage to administer the allyl isothiocyanate to the affected area in the form of a patch and assessing the effect one week later. […] Hairy hoof wart attack is a hoof and leg disease having lesions that are more serious and cover a broader area in comparison with digital dermatitis, and when considering that an effective preventive and/or treatment method has currently yet to be found, this effect of allyl isothiocyanate can be said to be groundbreaking.

[3] = tested on: Clostridiaceae; assay: 16S rRNA clone analysis of digital dermatitis lesion before and after treatment; conditions: Table 3 cow
Excerpt: (§1) Samples were collected from two cows afflicted with digital dermatitis. First, a digital dermatitis lesion was collected from the affected area by biopsy prior to treatment. After collecting the lesion, a powdered composition containing allyl isothiocyanate (trade name: “Wasaouro Powder”, Mitsubishi-Kagaku Foods Corp.) was applied to the affected area. After confirming improvement of clinical symptoms seven days later, a sample was again collected by biopsy. The stage of digital dermatitis at the time of sampling was assessed macroscopically. In order to investigate the predominant microbial species in the lesion before and after treatment, DNA was extracted from four specimens of digital dermatitis lesion materials of the two cows before and after treatment, low cycle number PCR (25 cycles or less) was carried out using universal primers to 16S rRNA gene, and the amplified gene fragment was cloned in an Escherichia coli vector. 192 clones were randomly harvested for each specimen to determine the base sequence of the amplified 16S rRNA gene. Among these, a homology analysis was performed by a BLAST search using clones from which data was obtained for base sequences in excess of 1450 bp, followed by determination of microbial species.

[4] = tested on: Treponema; assay: as above
Excerpt: as §1

[5] = tested on: Psychrobacter; assay: as above; conditions: Table 3 cow
Excerpt: as §1

[6] = tested on: Acholeplasma vituli; assay: as above; conditions: Table 3 cow
Excerpt: as §1

[7] = tested on: Eubacteriaceae; assay: as above
Excerpt: as §1

[8] = tested on: Anaerovorax odorimutans; assay: as above; conditions: Table 3 cow
Excerpt: as §1

[9] = tested on: dairy cows afflicted with digital dermatitis; assay: Pain at affected area by pressure gauge, with and without hoof trimming (Example 4); conditions: applied after hoof trimming; observed after 2, 4 and 6 days
Excerpt: (§2) Allyl isothiocyanate (trade name: “Wasaouro Powder”, Mitsubishi-Kagaku Foods Corp.) was applied to the affected areas of dairy cows afflicted with digital dermatitis, and microbial scores and changes in pain at the lesions were observed after 2, 4 and 6 days.
(§3) Comparisons were made under the following conditions A to D in order to confirm differences in effects attributable to the presence or absence of hoof trimming.
(§4) A: Allyl isothiocyanate applied to affected area after hoof trimming
(§5) B: Allyl isothiocyanate applied to affected area without performing hoof trimming
(§6) C: Allyl isothiocyanate applied after hoof trimming and cleaning the affected area with Oxydol disinfectant
(§7) D: Affected area cleaned with Oxydol disinfectant after hoof trimming (without applying allyl isothiocyanate)
Changes in pain were evaluated based on the level of pressure at which pain was felt by tightly squeezing the affected area with a pressure gauge. Larger values indicate lower levels of pain.

[10] = tested on: Treponema; assay: Microbial score of affected area with and without hoof trimming (Example 4); conditions: observed after 2, 4 and 6 days
Excerpt: as §2, §3, §4, §5, §6, §7
Microbial scores of the affected areas were obtained by scoring the number of microorganisms from a stamped specimen of the heel bulb in the manner indicated below.
3: Treponema covered the entire field of view
2: Large number of Treponema confirmed in the field of view
1: Treponema only occasionally confirmed
0: Treponema unable to be confirmed

[11] = 3 g powder patch, five dairy cows
[12] = after treatment (n = 178), seven days
[13] = Table 2 cow, after treatment (n = 171), seven days
[14] = Table 2 cow, before treatment (n = 181)
[15] = Table 3 cow, after treatment (n = 178), seven days
[16] = Table 3 cow, before treatment (n = 180)

C=CCN=C=S [Allyl isothiocyanate, allyl isothiocyanate]
Degree of effect: Effective (number of digits) [1]: 1 digits | Degree of effect: Ineffective (number of digits) [1]: 0 digits | Degree of effect: Slightly effective (number of digits) [1]: 0 digits | Degree of effect: Very effective (number of digits) [1]: 2 digits | percentage of digits for which the degree of the effect was effective or better [1]: 100% | cows in which the affected area demonstrated improvement [2, 11]: one | cows in which the affected area healed [2, 11]: two | cows in which the affected area was unchanged [2, 11]: one | cows with effects categorized as improved or better ([2]; of the five dairy cows): four | percentage of clones detected: Clostridiaceae [3, 12]: 5.6% | percentage of clones detected: Clostridiaceae ([3]; before treatment (n = 180)): 26.7% | percentage of clones detected: Treponema [4, 13]: 7.0% | percentage of clones detected: Treponema [4, 14]: 79.6% | percentage of clones detected: Treponema [4, 15]: 0% | percentage of clones detected: Treponema [4, 16]: 37.8% | percentage of clones detected: Psychrobacter [5, 12]: 0% | percentage of clones detected: Psychrobacter ([5]; before treatment (n = 180)): 2.2% | percentage of clones detected: Acholeplasma vituli [6, 12]: 0% | percentage of clones detected: Acholeplasma vituli ([6]; before treatment (n = 180)): 3.9% | percentage of clones detected: Eubacteriaceae [7, 13]: 0.6% | percentage of clones detected: Eubacteriaceae [7, 14]: 5.5% | percentage of clones detected: Eubacteriaceae [7, 15]: 0.6% | percentage of clones detected: Eubacteriaceae [7, 16]: 10.6% | percentage of clones detected: Anaerovorax odorimutans [8, 12]: 0% | percentage of clones detected: Anaerovorax odorimutans ([8]; before treatment (n = 180)): 10.0% | pain [9]: decrease | number of microorganisms at the lesion ([10]; administered after hoof trimming): decrease | number of microorganisms at the lesion ([10]; applied after cleaning the affected area with Oxydol disinfectant): decrease further

[Ca+2].[OH-].[OH-] [Slaked lime, slaked lime, reference compound]
Degree of effect: Effective (number of digits) [1]: 2 digits | Degree of effect: Ineffective (number of digits) [1]: 0 digits | Degree of effect: Slightly effective (number of digits) [1]: 5 digits | Degree of effect: Very effective (number of digits) [1]: 0 digits | percentage of digits for which the degree of the effect was effective or better [1]: 29%
